One series concerns the target T1, RIPK3 kinase domain (Homo sapiens, UniProt Q9Y572).
T1 construct: purchased DiscoverX
Nature of the series: ATP-competitive probe displacement assay, RIPK3. The class given is binding. How it is done: (§1) Compound binding constants (KDs) were determined at DiscoverX using their KINOMEscan assay platform. This competition binding assay was previously described in Karaman et al. (2008)[18]. Briefly, full length MLKL was expressed in HEK-293 cells as a fusion with an NFκB DNA binding domain and subsequently tagged with a qPCR detection amplicon via interaction with NFκB. […] Twenty microliters of binding reactions were carried out in 384-well polypropylene plates for 1 hour at room temperature. Beads were subsequently washed and resuspended in elution buffer for 30 minutes at room temperature with shaking. The concentration of MLKL in the eluates was measured by qPCR and compound binding constants were calculated using a standard dose-response curve.
(§2) A similar approach was used to measure binding affinities for RIPK1 and RIPK3 kinase domains.

The next series addresses T2, full length MLKL (Homo sapiens, UniProt Q8NB16).
T2 construct: purchased DiscoverX (KINOMEscan service); host or cells: HEK-293
T2 sequence (Q8NB16 1-471): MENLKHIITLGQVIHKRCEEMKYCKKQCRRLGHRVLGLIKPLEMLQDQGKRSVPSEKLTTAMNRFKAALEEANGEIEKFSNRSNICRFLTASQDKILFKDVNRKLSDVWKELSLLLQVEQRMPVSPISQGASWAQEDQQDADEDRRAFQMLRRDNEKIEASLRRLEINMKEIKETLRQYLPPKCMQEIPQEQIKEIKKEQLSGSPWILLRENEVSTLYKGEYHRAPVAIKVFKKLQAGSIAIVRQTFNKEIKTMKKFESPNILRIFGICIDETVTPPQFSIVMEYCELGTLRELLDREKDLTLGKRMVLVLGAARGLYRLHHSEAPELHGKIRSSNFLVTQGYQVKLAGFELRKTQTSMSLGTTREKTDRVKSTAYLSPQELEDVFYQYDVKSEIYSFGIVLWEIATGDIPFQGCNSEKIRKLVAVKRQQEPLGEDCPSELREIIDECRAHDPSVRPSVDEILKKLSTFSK
Nature of the series: KINOMEscan ATP-competitive probe displacement (competition binding) assay, MLKL. To be noted: average of duplicates. How it is done:
as §1, with “This competition binding assay was previously described in Karaman et al. (2008)[18].” left out
as §2

Another series has as its system FADD (-/-) Jurkat cells. Kind of series: Viability experiment in the absence of TNF. The class given is cell-based. Conditions: FADD deficient Jurkat cells, Fig 3A. How it is done: Necroptosis assays were performed at Charles River Laboratories (United Kingdom) and at Biogen. […] On the day of the experiment, cells were counted using Nexcelom Bioscience Cell Meter Vision and pelleted by centrifugation. Cell pellets were resuspended in fresh medium at 500,000 cells per mL and transferred to assay-ready compound plates prepared in 384-well white TC plates (Greiner #781080) at 20μl cells per well. Cells and compound were incubated at room temperature for 30 minutes followed by +/- stimulation with 15ng/ml TNF-α (Cell signalling Technologies #8902LF) overnight at 37°C. In the morning, plates were equilibrated to room temperature for 30 minutes and 25μl of CellTiter-Glow (CellTiter-Glo 2.0 Assay, Promega # G9243) diluted 1:4 in PBS was added to each well and allowed to incubate for 10 minutes at room temperature. Luminescence was read on an Envision plate reader (Perkin Elmer). Percent viability values are calculated from separate dose response experiments identical to the percent rescue experiment except that no TNF is added to the cells. This assay is intended to identify compounds that not only don’t rescue, but are toxic themselves. 100% Viability is defined as the intensity value of the “no TNF” wells, cell treated with neither compound nor TNF. […]

For another series, the target named is T3, N-terminal domain HSP90α (Homo sapiens, UniProt P07900).
T3 construct: the N-terminal domain HSP90α; made in house
Nature of the series: Differential scanning fluorimetry (thermal shift), Hsp90α N-terminal domain. The class given is binding. To be noted: 10 μM compound, Hsp90α catalytic domain. How it is done: To measure the thermal stabilization of the proteins upon compound binding we employed differential scanning fluorimetry (DSF). The kinase domain of RIPK1 and the N-terminal domain HSP90α were expressed and purified as previously described. The pseudokinase MLKL-1, RIPK1 and Hsp90 were melted at 1μM final concentrations in 25mM HEPES pH 8.0, 250mM NaCl and 2.5mM DTT. Compounds were added to a final concentration of 10 μ M with a final DMSO concentration of 5%. The complexes were incubated on ice for 30 minutes. Protein Thermal Shift dye (Life Technologies) was added to 1X. The fluorescence intensities were measured using a Quantstudio real-time PCR system (Life Technologies) with excitation at 470 nm and emission at 586 nm. The samples, measured in triplicate, were heated from 25 to 85°C with a heating rate of […].
A general note: DSF heats the sample and reads unfolding from a dye or from intrinsic fluorescence.

T1 sequence (Q9Y572 21-287 limits assumed): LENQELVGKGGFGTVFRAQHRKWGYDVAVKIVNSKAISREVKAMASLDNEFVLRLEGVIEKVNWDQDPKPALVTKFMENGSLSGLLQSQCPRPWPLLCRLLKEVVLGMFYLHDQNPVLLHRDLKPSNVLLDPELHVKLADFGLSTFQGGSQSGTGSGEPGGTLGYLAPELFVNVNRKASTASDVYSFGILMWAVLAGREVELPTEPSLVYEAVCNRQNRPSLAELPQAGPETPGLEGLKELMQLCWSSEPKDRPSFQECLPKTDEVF

Turning to `Nc1nccnc1C(=O)O[C@@H](C(=O)Nc1ccc(F)cc1)c1ccccc1` [cpd 4, 3-Amino-pyrazine-2-carboxylic acid (R)-(4-fluorophenylcarbamoyl)-phenyl-methyl ester], on RIPK3 kinase domain, the “displacement of the ATP probe from / binding to RIPK3 (in words)” value is reported as “without binding RIPK1 or RIPK3”. The Kd (as a rule, the concentration at which binding is half-saturated) is over 30 µM on RIPK3 kinase domain (average of duplicates) and 0.23 µM at full length MLKL.
`CN(c1ccc(NC(=O)Nc2ccc(OC(F)(F)F)cc2)cc1)c1ccnc(Nc2cccc(S(N)(=O)=O)c2)n1` [cpd 1, reference compound]: the “compound concentration at which cell viability became an issue” value in the series with FADD (-/-) Jurkat cells was over 2 µM. In addition, the shift in melting temperature (ΔTm) (as a rule, the change in melting temperature against a reference sample) at 10 µM on N-terminal domain HSP90α was 1.5 °C.

Values taken from publication PMC5104457, “ATP-Competitive MLKL Binders Have No Functional Impact on Necroptosis” (PLoS ONE, 2016).
